What all share (experiment): SelectScreen Kinase Profiling, single point inhibition and IC50 for off-target kinases
Assay type in all cases: biochemical

Test [1] addresses off-target kinases (Homo sapiens, UniProt P22694). The conditions noted are these: PRKACB (PRKAC beta), LanthaScreen Binding.
The target of test [2] is off-target kinases (Homo sapiens, UniProt Q9Y2H1). The following applies: STK38L (NDR2), LanthaScreen Binding.
In test [3] the target is off-target kinases (Homo sapiens, UniProt Q15418). The following applies: RPS6KA1 (RSK1), ZLYTE, ATP Km app.
Test [4] deals with T1, off-target kinases (Homo sapiens, UniProt Q8IVH8).
T1 sequence (Q8IVH8 1-894): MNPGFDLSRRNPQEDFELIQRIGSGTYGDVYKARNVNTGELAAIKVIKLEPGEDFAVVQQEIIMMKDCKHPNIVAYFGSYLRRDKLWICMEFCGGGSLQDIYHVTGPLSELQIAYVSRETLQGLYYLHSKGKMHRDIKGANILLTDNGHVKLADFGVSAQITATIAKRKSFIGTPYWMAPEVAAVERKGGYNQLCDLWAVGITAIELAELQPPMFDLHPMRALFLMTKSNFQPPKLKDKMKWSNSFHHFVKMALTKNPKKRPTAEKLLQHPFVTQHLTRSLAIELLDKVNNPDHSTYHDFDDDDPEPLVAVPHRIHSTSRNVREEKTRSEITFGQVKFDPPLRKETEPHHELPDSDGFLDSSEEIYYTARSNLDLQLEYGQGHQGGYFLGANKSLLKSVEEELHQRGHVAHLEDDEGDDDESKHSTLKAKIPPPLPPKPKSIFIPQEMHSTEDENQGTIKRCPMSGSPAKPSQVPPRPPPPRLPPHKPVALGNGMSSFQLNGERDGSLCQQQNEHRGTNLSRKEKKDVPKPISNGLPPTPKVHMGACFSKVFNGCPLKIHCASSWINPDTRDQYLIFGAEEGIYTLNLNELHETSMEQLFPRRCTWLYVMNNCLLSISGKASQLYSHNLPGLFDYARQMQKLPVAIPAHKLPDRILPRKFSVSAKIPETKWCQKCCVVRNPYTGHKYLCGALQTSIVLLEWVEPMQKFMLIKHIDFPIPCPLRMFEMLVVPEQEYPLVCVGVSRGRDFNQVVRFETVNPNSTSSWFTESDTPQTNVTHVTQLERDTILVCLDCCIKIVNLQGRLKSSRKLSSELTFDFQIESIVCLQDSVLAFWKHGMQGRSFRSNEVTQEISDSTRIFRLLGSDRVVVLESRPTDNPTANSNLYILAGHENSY
The following applies: MAP4K3 (GLK), LanthaScreen Binding. (In general: TR-FRET usually uses a lanthanide donor and a delayed reading to cut background.)

Test [5] deals with off-target kinases (Homo sapiens, UniProt P00519). The following applies: ABL1, ATP Km app, ZLYTE.
In test [6] the target is off-target kinases (Homo sapiens, UniProt P00533, L858R). The following applies: EGFR (ErbB1) L858R (mutant), ZLYTE, ATP Km app.

Where two headings read alike, the source gives them in different places.

off-target kinases (Homo sapiens, UniProt P00533, L858R), sequence (P00533 25-1210 L858R): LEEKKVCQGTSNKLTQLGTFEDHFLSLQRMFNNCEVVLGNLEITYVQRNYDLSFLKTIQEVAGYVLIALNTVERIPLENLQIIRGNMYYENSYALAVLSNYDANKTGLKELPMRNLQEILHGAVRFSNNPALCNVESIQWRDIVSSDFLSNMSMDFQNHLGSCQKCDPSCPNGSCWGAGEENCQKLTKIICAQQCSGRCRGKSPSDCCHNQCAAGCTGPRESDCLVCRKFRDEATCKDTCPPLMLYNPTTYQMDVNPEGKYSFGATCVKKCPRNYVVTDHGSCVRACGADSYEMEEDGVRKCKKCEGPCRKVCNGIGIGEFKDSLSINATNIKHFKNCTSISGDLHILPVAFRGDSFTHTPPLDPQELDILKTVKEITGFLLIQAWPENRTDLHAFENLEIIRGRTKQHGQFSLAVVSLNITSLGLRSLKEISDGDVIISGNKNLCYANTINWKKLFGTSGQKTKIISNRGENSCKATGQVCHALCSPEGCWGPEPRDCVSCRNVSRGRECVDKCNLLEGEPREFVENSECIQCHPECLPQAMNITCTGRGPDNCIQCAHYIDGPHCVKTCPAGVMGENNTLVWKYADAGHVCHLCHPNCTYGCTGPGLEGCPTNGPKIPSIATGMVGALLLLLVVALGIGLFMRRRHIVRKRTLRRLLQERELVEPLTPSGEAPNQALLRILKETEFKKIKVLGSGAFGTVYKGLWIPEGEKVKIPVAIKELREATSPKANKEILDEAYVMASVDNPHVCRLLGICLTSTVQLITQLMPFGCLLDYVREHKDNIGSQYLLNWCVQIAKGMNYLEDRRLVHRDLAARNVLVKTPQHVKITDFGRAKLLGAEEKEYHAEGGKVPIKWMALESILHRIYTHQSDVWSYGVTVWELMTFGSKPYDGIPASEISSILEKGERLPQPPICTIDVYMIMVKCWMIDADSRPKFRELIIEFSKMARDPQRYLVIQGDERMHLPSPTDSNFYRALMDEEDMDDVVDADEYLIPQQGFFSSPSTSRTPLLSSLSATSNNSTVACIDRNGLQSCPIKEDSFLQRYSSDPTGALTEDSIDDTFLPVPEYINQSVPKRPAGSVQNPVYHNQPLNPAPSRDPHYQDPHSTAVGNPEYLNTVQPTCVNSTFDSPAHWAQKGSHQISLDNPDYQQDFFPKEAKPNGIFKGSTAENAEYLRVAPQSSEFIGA
off-target kinases (Homo sapiens, UniProt Q9Y2H1), sequence (Q9Y2H1 whole entry): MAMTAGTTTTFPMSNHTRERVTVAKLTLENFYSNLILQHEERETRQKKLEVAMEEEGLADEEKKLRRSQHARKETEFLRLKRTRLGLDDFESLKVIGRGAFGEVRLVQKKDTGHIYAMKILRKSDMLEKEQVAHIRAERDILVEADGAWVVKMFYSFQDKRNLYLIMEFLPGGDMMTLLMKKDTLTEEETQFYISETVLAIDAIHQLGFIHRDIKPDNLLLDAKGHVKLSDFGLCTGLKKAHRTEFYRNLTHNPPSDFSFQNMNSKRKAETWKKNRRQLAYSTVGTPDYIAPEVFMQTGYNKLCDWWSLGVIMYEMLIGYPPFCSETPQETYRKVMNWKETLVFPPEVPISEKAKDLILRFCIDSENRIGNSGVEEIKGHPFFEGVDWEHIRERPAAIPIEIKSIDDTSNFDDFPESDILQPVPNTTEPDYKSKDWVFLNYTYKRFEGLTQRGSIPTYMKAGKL
off-target kinases (Homo sapiens, UniProt P00519), sequence (P00519 whole entry): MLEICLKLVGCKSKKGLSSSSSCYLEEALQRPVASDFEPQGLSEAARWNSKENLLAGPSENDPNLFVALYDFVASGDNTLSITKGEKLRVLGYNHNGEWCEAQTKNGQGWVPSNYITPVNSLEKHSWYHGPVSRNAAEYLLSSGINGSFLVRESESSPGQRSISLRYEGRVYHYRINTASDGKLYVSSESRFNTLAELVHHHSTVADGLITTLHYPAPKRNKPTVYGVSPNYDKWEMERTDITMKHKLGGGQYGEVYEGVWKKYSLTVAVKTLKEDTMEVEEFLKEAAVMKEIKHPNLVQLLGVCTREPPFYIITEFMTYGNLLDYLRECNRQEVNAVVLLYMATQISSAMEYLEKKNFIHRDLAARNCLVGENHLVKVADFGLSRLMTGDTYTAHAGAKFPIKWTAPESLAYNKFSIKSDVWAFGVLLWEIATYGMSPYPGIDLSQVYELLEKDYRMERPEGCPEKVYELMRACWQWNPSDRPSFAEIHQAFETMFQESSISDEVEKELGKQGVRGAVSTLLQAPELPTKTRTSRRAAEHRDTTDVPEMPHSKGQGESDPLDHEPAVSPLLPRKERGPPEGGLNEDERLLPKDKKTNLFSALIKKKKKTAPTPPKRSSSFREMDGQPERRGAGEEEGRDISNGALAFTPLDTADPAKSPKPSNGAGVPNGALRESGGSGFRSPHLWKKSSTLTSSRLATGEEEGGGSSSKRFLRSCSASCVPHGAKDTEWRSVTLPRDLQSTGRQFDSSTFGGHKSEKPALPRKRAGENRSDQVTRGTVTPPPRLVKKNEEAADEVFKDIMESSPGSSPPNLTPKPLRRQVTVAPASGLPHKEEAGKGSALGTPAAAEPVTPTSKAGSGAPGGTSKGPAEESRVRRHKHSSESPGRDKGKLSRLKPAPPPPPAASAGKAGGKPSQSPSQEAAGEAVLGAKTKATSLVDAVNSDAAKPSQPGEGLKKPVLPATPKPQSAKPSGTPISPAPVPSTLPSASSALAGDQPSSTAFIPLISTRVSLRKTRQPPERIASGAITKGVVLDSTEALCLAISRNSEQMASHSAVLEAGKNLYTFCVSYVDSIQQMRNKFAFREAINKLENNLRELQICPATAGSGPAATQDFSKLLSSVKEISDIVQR
off-target kinases (Homo sapiens, UniProt Q15418), sequence (Q15418 whole entry): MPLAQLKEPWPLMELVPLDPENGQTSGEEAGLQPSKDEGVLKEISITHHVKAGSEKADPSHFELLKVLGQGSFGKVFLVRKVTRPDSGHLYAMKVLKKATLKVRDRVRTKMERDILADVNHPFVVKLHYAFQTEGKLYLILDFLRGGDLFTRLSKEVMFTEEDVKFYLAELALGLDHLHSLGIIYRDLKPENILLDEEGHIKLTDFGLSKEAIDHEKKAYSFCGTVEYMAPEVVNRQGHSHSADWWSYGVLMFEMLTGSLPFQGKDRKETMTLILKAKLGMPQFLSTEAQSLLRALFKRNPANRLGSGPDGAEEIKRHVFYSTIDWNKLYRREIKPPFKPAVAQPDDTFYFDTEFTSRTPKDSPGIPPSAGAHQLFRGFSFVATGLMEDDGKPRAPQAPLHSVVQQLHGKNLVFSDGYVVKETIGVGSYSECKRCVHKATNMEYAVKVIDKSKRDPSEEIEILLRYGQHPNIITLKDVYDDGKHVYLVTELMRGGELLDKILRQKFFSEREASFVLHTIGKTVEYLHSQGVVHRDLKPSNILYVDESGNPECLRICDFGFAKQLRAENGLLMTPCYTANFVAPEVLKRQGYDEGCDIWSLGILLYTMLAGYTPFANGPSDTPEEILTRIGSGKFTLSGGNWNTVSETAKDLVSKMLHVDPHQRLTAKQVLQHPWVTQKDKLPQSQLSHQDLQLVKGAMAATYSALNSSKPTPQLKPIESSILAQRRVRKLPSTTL

A word on the inhibition: it is the change of the read-out against control, counted positive when it falls. In the case of `N#Cc1cc(-c2ncnc(Nc3ccc(N4CCN(C5COC5)CC4)cc3)n2)ccc1OC1CCOCC1` [Compound 1, 5-(4-((4-(4-(oxetan-3-yl)piperazin-1-yl)phenyl)amino)-1,3,5-triazin-2-yl)-2-((tetrahydro-2H-pyran-4-yl)oxy)benzonitrile], the inhibition in test [1] (read-out: % Inhibition 1) amounted to 16%; in test [1] (read-out: % Inhibition 2) it was 18%; in test [1] (read-out: % Inhibition Avg), 17%; in test [2] (read-out: % Inhibition 1), 30%; in test [2] (read-out: % Inhibition 2), 38%; in test [2] (read-out: % Inhibition Avg), 34%. The inhibition in test [3] (read-out: % Inhibition 1) was found to be 15%; in test [3] (read-out: % Inhibition 2), 11%; in test [3] (read-out: % Inhibition Avg), 13%; in test [4] (read-out: % Inhibition 1), 16%; in test [4] (read-out: % Inhibition 2), 21%; in test [4] (read-out: % Inhibition Avg) it was 18%. For the same molecule, the inhibition in test [5] (read-out: % Inhibition 1) is 48%; in test [5] (read-out: % Inhibition 2), 51%; in test [5] (read-out: % Inhibition Avg), 49%; in test [6] (read-out: % Inhibition 1), 6%; in test [6] (read-out: % Inhibition 2) it was 3%; in test [6] (read-out: % Inhibition Avg), 4%.

The values above are taken from patent US11572590B2, “Methods for evaluating tumor cell spheroids using 3D microfluidic cell culture device” (Dana-Farber Cancer Institute, Inc., priority 2017, dated 2023).
